Experimental findings from PMC5904360, “Soluble N-Ethylmaleimide-Sensitive Factor Attachment Protein Receptor-Derived Peptides for Regulation of Mast Cell Degranulation” (Frontiers in Immunology, 2018) are described below.

Test [1] addresses T1, SN23-Syn4-Vp8 SNARE complex (Rattus norvegicus, UniProt O70377+Q08850+Q9WUF4).
T1 construct: Syn4 (amino acids 1–298); SNAP-23 (amino acids 1–210); VAMP8 (amino acids 1–100); GST (N, cleaved yes); made in house; host or cells: Escherichia coli Rosetta(DE3)pLysS
T1 sequence (Q08850 1-298): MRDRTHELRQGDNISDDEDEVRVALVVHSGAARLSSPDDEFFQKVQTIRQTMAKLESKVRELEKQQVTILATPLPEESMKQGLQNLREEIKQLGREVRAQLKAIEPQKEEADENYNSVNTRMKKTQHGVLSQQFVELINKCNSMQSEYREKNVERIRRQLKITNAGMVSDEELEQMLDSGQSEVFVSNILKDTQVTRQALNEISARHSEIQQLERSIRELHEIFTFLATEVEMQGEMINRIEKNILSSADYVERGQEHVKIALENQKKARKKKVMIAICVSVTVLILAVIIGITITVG
T1 sequence (O70377 1-210): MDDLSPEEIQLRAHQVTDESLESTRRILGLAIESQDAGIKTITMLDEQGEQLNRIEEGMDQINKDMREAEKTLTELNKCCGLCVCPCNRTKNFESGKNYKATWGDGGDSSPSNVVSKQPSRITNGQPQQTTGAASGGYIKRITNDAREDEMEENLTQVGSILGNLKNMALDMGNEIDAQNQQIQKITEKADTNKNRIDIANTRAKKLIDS
T1 sequence (Q9WUF4 1-100): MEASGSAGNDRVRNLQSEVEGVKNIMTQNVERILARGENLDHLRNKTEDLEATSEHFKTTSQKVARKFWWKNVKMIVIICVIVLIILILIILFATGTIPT
The test can be described thus: SNARE-driven membrane fusion (total lipid mixing) assay with proteoliposomes. Particulars: for inhibition of membrane fusion, peptide added before preincubation: peptide added before preincubation of T- and V-liposomes at 4°C overnight (Figure 4A). The test is classed as biochemical. The text has this: (§1) Total RNA was obtained from RBL-2H3 cells using TRIzol® Reagent (#15596026, Invitrogen, Carlsbad, CA, USA) and served as a template for cDNA synthesis with M-MLV reverse transcriptase (M1705, Promega, Madison, WI, USA) according to the manufacturer’s protocol. The cDNAs amplified for rat Syn4, SNAP-23, VAMP2, VAMP4, VAMP7, and VAMP8 using each primer pair ([4]), were cloned into the pGEX-4T 1 vector. The mast cell SNARE proteins [Syn4 (amino acids 1–298), SNAP-23 (amino acids 1–210), full-length VAMP2 (VpF, amino acids 1–116), VAMP4 (amino acids 1–141), and VAMP8 (amino acids 1–100)] were expressed in Escherichia coli Rosetta(DE3)pLysS (#70956, Novagen, Darmstadt, Germany) and purified as glutathione-S-transferase-tagged fusion proteins as reported previously ([8]).
(§2) To prepare the unilamellar liposomes, a 50-mM lipid mixture of palmitoyl-2-oleoylphosphatidylcholine (POPC) (#850457, Avanti Polar Lipids, Alabaster, AL, USA):1,2-dioleoyl-phosphatidylserine (DOPS) (#840035, Avanti Polar Lipids) at 65:35 mol% was dried in a glass tube under a gentle stream of nitrogen gas and then exposed to a vacuum overnight. The resultant lipid film was resuspended in dialysis buffer (25 mM HEPES and 100 mM KCl, pH 7.4) by vortexing, followed by an extrusion step with polycarbonate membrane filters having a pore size of 100 nm (#610005, Avanti Polar Lipids). To prepare proteoliposomes, binary T-SNAREs, which were pre-formed by mixing Syn4 and SNAP-23 at room temperature for 60 min, were incubated with 50 mM unilamellar liposomes for 15 min at the same temperature, resulting in a 50:1 lipid/protein molar ratio ([9]).
(§3) For the preparation of V-SNARE proteoliposomes, a 10-mM premixed lipid solution [POPC:DOPS:N-(7-nitro-2-1,3-benzoxadiazol-4-yl (NBD))-phosphatidylserine (#810198, Avanti Polar Lipids):[…] (#810150, Avanti Polar Lipids) = 62:35:1.5:1.5 (molar ratio)] was used for the preparation of fluorescent liposomes in the same manner as above. The prepared liposomes were then mixed with VAMP2 for 15 min at room temperature. The liposome/protein mixture was diluted twice to bring the concentration of n-octyl glucoside (O8001, Sigma-Aldrich) below the critical micelle concentration. After overnight dialysis against 1L dialysis buffer at 4°C to remove the detergent, SM-2 bio-beads (#1523920, Bio-Rad Laboratories, Hercules, CA, USA) were added to the sample to remove any remaining n-octyl glucoside. The solution was then centrifuged at 10,000 × g to remove the protein/lipid aggregates, and the final lipid concentrations of both the T- and V-liposomes were adjusted to 1 mM with a lipid-to-protein ratio of 50:1.
A total lipid mixing assay using the T- and V-liposomes was performed as described previously with minor modifications ([8]). Briefly, peptide inhibitors were applied to the T-vesicles at the indicated concentrations and then the T-vesicles were mixed with the V-vesicles in a 384-well plate for the initiation of fusion, with a T- to V-vesicle volume ratio of 9:1. The fusion was monitored using the dequenching of NBD fluorescence signal (excitation 465 nm/emission 530 nm). After at least 80 min of fusion, the maximum NBD signal was obtained by adding 0.1% Triton X-100™. All the lipid-mixing experiments were performed at 37°C.

Test [2] has as its system RBL-2H3 mast cells. Put plainly: Degranulation assay, β-hexosaminidase release. The test is classed as cell-based, rat. The following applies: for inhibition of mast cell degranulation with versus without A23187 pretreatment: PTD-conjugated peptides, read-outs β-hexosaminidase and histamine (Figure 4B); for reduction of β-hexosaminidase release: 10 µM PTD-fused peptide without SLO (LY294002 as positive control), DNP-BSA stimulation, no A23187 pretreatment, three independent experiments (Figure 2A gray bars, 2C).

Test [3] has as its target T2, SN23-Syn4-Vp2 SNARE complex (Rattus norvegicus, UniProt O70377+P63045+Q08850).
T2 construct: Syn4 (amino acids 1–298); SNAP-23 (amino acids 1–210); full-length VAMP2 (VpF, amino acids 1–116); GST (N, cleaved yes); made in house; host or cells: Escherichia coli Rosetta(DE3)pLysS
Put plainly: SNARE-driven membrane fusion (total lipid mixing) assay with proteoliposomes. The test is classed as biochemical. Particulars: for inhibition of membrane fusion, peptide added after preincubation: peptide added after preincubation of T- and V-liposomes at 4°C overnight (partially zippered SNAREs) (Figure 4A); for inhibition of membrane fusion, peptide added before preincubation: peptide added before preincubation of T- and V-liposomes at 4°C overnight (Figure 4A).
Source text: as §1, §2, §3
A total lipid mixing assay using the T- and V-liposomes was performed as described previously with minor modifications ([8]). […] The fusion was monitored using the dequenching of NBD fluorescence signal (excitation 465 nm/emission 530 nm). After at least 80 min of fusion, the maximum NBD signal was obtained by adding 0.1% Triton X-100™. All the lipid-mixing experiments were performed at 37°C.

Test [4] has as its target T1, SN23-Syn4-Vp8 SNARE complex. The test is described as above. The test is classed as biochemical. The following applies: peptide added after preincubation of T- and V-liposomes at 4°C overnight (partially zippered SNAREs) (Figure 4A).
Test [5] concerns RBL-2H3 mast cells. The test can be described thus: Degranulation assay, histamine release (enzyme immunoassay). The format is cell-based, rat. Particulars: PTD-conjugated peptide without SLO (LY294002 as positive control), DNP-IgE sensitized, DNP-BSA stimulation, no A23187 pretreatment; three independent experiments (Figure 2C).

T2 sequence (P63045 whole entry, one chain of several, the tested form may be a part): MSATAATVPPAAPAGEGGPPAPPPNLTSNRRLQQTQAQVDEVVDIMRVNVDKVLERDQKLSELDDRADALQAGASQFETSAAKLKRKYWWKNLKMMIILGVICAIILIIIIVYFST

In the case of “DQINKDMREAEKTLTEL [SN23C, 17-mer peptide, C-terminal region of SNAP-23 SNARE motif SN23]”, the “inhibition of membrane fusion, peptide added before preincubation” value in test [1] and in test [3] was “did not inhibit membrane fusion regardless of preincubation” in each case. The “inhibition of mast cell degranulation with versus without A23187 pretreatment” value in the test on RBL-2H3 mast cells [2] was “did not inhibit degranulation regardless of whether the pretreatment with A23187 was performed”. The “inhibition of membrane fusion, peptide added after preincubation” value in test [3] and in test [4] was “did not inhibit membrane fusion regardless of preincubation” throughout.
As for “EHFKTTSQKVARKFWWK [Vp8C, 17-mer peptide, C-terminal region of VAMP8 SNARE motif]”, the “inhibition of membrane fusion, peptide added before preincubation” value in test [1] and in test [3] was “did not inhibit membrane fusion regardless of preincubation” throughout. Further, the “inhibition of mast cell degranulation with versus without A23187 pretreatment” value with RBL-2H3 mast cells [2] is given as “did not inhibit degranulation regardless of whether the pretreatment with A23187 was performed”. For the same sequence, the “inhibition of membrane fusion, peptide added after preincubation” value in test [3] and in test [4] was “did not inhibit membrane fusion regardless of preincubation” each time.
For the sequence “KIKHVQNQVDEVIDVMQ [Vp4N, 17-mer peptide, N-terminal region of VAMP4 SNARE motif]”, the “inhibition of histamine release” value in the test on RBL-2H3 mast cells [5] is listed as 0–20%. Further, in the test on RBL-2H3 mast cells [2], the “reduction of β-hexosaminidase release” value is reported as 0–20%.
Turning to “QSLDRVTETQAQVDELK [Vp7N, 17-mer peptide, N-terminal region of VAMP7 SNARE motif]”, in the test on RBL-2H3 mast cells [5], the “inhibition of histamine release” value is recorded as 0–20%. Besides, the “reduction of β-hexosaminidase release” value in the test with RBL-2H3 mast cells [2] is listed as 0–20%.
In the case of “RGENLDHLRNKTEDLEA [Vp8M, 17-mer peptide, middle region of VAMP8 SNARE motif]”, the “inhibition of membrane fusion (lipid mixing)” value in test [1] (inhibitor applied to T-vesicles, T:V 9:1, 37°C, NBD dequenching, Vp2S/Vp8S at 10 µM, three independent experiments (Figure 3B-D)) was “specific to the SN23-Syn4-Vp8 complex”.
